Where a name gives a salt, the structure may show the parent alone.
Key:
[1] = hygroscopicity by dynamic vapor sorption; type: physicochemical; conditions: transitioned from 0% to 90% relative humidity
[2] = water solubility of the crystalline form in phosphate buffer; type: physicochemical; conditions: for solubility: pH 6.8 (phosphate buffer; 50 mM where stated)
[3] = aqueous buffer, read-out: water solubility of (S)-1-((R)-3-amino-1-(4-((6-amino-9H-purin-9-yl)methyl)-6-(2,5-difluoro-4-methoxyphenyl)pyridin-3-yl)piperidin-3-yl)-2,2-difluoroethan-1-ol
[4] = pH 7.0 (phosphate buffer), 37° C., after 30 minutes

SMILES | increase in weight (hygroscopicity by dynamic vapor sorption) [1] | water solubility of (S)-1-((R)-3-amino-1-(4-((6-amino-9H-purin-9-yl)methyl)-6-(2,5-difluoro-4-methoxyphenyl)pyridin-3-yl)piperidin-3-yl)-2,2-difluoroethan-1-ol [2, 4] | also measured
COc1cc(F)c(-c2cc(Cn3cnc4c(N)ncnc43)c(N3CCC[C@](N)([C@H](O)C(F)F)C3)cn2)cc1F.Cl [Example 1, (S)-1-((R)-3-amino-1-(4-((6-amino-9H-purin-9-yl)methyl)-6-(2,5-difluoro-4-methoxyphenyl)pyridin-3-yl)piperidin-3-yl)-2,2-difluoroethan-1-ol Hydrochloric Acid Salt] | 16% | – | solubility [2, 3]: 220 µg/mL
COc1cc(F)c(-c2cc(Cn3cnc4c(N)ncnc43)c(N3CCC[C@](N)([C@H](O)C(F)F)C3)cn2)cc1F [Example 2, (S)-1-((R)-3-amino-1-(4-((6-amino-9H-purin-9-yl)methyl)-6-(2,5-difluoro-4-methoxyphenyl)pyridin-3-yl)piperidin-3-yl)-2,2-difluoroethan-1-ol Hydrochloric Acid Salt] | 1.8% | – | solubility [2, 3]: 210 µg/mL
COc1cc(F)c(-c2cc(Cn3cnc4c(N)ncnc43)c(N3CCC[C@](N)([C@H](O)C(F)F)C3)cn2)cc1F.Cl [Example 3, (S)-1-((R)-3-amino-1-(4-((6-amino-9H-purin-9-yl)methyl)-6-(2,5-difluoro-4-methoxyphenyl)pyridin-3-yl)piperidin-3-yl)-2,2-difluoroethan-1-ol Hydrochloric Acid Salt] | – | – | solubility at 30 min ([2]; aqueous buffer, pH 7.0 (phosphate buffer), 37° C., after 30 minutes, read-out: water solubility of (S)-1-((R)-3-amino-1-(4-((6-amino-9H-purin-9-yl)methyl)-6-(2,5-difluoro-4-methoxyphenyl)pyridin-3-yl)piperidin-3-yl)-2,2-difluoroethan-1-ol): 1170 µg/mL
COc1cc(F)c(-c2cc(Cn3cnc4c(N)ncnc43)c(N3CCC[C@](N)([C@H](O)C(F)F)C3)cn2)cc1F [Example 4, (S)-1-((R)-3-amino-1-(4-((6-amino-9H-purin-9-yl)methyl)-6-(2,5-difluoro-4-methoxyphenyl)pyridin-3-yl)piperidin-3-yl)-2,2-difluoroethan-1-ol Hydrochloric Acid Salt] | – | 360 µg/mL | –
COc1cc(F)c(-c2cc(Cn3cnc4c(N)ncnc43)c(N3CCC[C@](N)([C@H](O)C(F)F)C3)cn2)cc1F [Example 5, (S)-1-((R)-3-amino-1-(4-((6-amino-9H-purin-9-yl)methyl)-6-(2,5-difluoro-4-methoxyphenyl)pyridin-3-yl)piperidin-3-yl)-2,2-difluoroethan-1-ol Sulfuric Acid Salt] | 6.0% | – | –
COc1cc(F)c(-c2cc(Cn3cnc4c(N)ncnc43)c(N3CCC[C@](N)([C@H](O)C(F)F)C3)cn2)cc1F [Example 6, (S)-1-((R)-3-amino-1-(4-((6-amino-9H-purin-9-yl)methyl)-6-(2,5-difluoro-4-methoxyphenyl)pyridin-3-yl)piperidin-3-yl)-2,2-difluoroethan-1-ol Sulfuric Acid Salt] | – | 780 µg/mL | –
COc1cc(F)c(-c2cc(Cn3cnc4c(N)ncnc43)c(N3CCC[C@](N)([C@H](O)C(F)F)C3)cn2)cc1F [Example 8, (S)-1-((R)-3-amino-1-(4-((6-amino-9H-purin-9-yl)methyl)-6-(2,5-difluoro-4-methoxyphenyl)pyridin-3-yl)piperidin-3-yl)-2,2-difluoroethan-1-ol Succinic Acid Salt] | – | 1670 µg/mL | –
COc1cc(F)c(-c2cc(Cn3cnc4c(N)ncnc43)c(N3CCC[C@](N)([C@H](O)C(F)F)C3)cn2)cc1F [Example 10, Crystalline L-Malic Acid Salt of (S)-1-((R)-3-amino-1-(4-((6-amino-9H-purin-9-yl)methyl)-6-(2,5-difluoro-4-methoxyphenyl)pyridin-3-yl)piperidin-3-yl)-2,2-difluoroethan-1-ol] | – | 1530 µg/mL | –
COc1cc(F)c(-c2cc(Cn3cnc4c(N)ncnc43)c(N3CCC[C@](N)([C@H](O)C(F)F)C3)cn2)cc1F [Example 11, Crystalline L-Tartaric Acid Salt of (S)-1-((R)-3-amino-1-(4-((6-amino-9H-purin-9-yl)methyl)-6-(2,5-difluoro-4-methoxyphenyl)pyridin-3-yl)piperidin-3-yl)-2,2-difluoroethan-1-ol] | – | 540 µg/mL | –

— patent US20250326752A1, “PIPERIDINYL-METHYL-PURINE AMINE SALTS, CRYSTALLINE FORMS, AND THEIR USE IN TREATING MEDICAL DISEASES AND CONDITIONS” (K36 Therapeutics, Inc., priority 2022, published 2025)
